Measured values taken from article PMC10597649, “Effect of Astragali radix extract on pharmacokinetic behavior of dapagliflozin in healthy and type 2 diabetic rats” (Frontiers in Pharmacology, 2023).
Like-named read-outs stand apart in the source and are kept apart here.

How the values were obtained:
[1] = ref Kasichayanula et al., 2013, cited from earlier work
P-gp = conditions: ref Obermeier et al., 2010; cited from earlier work
in vivo = conditions: for Cmax / MRT last / half-life / Tmax: male, Sprague-Dawley, rat, plasma, po; for MRT last: MRT(0-t)
Description: An AB SCIEX (USA) Exion LC system consisting of vacuum degasser, binary pump and auto-sampler were used for solvent and sampler delivery. Chromatographic separation was achieved using Agilent Poroshell 120 EC-C18 column (2.1 × 100 mm, 1.9 μm). The column temperature was maintained at 40°C. The mobile phase consisted of 0.1% formic acid-1mM ammonium formate-water solution (A) and acetonitrile (B) was used, and the flow rate was set at 0.3 mL/min. The gradient elution program was as follows: 0–2.0 min (90%–65% A), 2.0–6.0 min (65%–60% A), 6.0–7.0 min (60%–90% A), 7–10 min (90% A). The processed samples were stored at 4°C in an auto sampler. The sample injection volume was 2 μL. An AB SCIEX (USA) Q-TRAP 6500 model mass spectrometer (MS) equipped with a turbolon spray ionization (ESI) source was used for mass analysis and detection. DAPA and the internal standard (IS, i.e., empagliflozin) were analyzed in positive ion mode with multiple reaction monitoring (MRM) pairs: m/z 426.1–355.0 for DAPA and m/z 468.1–355.1 for IS. The ion spray voltage was set at 5500V. The curtain gas, ion source gas 1 and ion source gas 2 were set at 35, 60 and 50 psi, respectively. The source temperature was kept at 200°C. The collision gas was set at low flow rate. The declustering potential and collision energy were 35 V and 19 V for DAPA, 40 V and 21 V for IS.
The rat plasma samples (50 μL), IS working solution (5 μL), 50% methanol (5 μL), and MTBE (500 μL) were mixed, then were vortexed for 3 min and centrifuged for 5 min (4000 rpm, 4°C). The organic phase was transferred to a new centrifuged tube and evaporated to dryness with a stream of nitrogen at room temperature. The dried samples were redissolved with 100 µL of 50% methanol and vortexed for 1 min, then 2 µL of supernatant fluid was injected into the LC-MS/MS instrument for analysis.
Male Sprague Dawley (SD) rats (180–220g, 6–8 weeks old) were provided by Animal Experimentation Centre, School of Pharmacy, Fudan University (Shanghai, China). All the experimental procedures for this study were reviewed and approved by Experimental Animal Ethics Committee of School of Pharmacy, Fudan University, which was in strict compliance with the International Code for the Care and Use of Experimental Animals (approval number:2020-04-LY-MG-01). All the animals were housed under standard laboratory conditions of temperature (25°C ± 2°C), constant humidity (55 ± 5%), and light (12 h dark/light cycle), with freely available food and purified water. After 1 week of acclimation, 12 rats were randomly selected as the healthy group that was fed with the ordinary feed. The remaining 20 rats were modeled for T2DM that were fed with high-fat diet (HFD). After 4 weeks, the modeled rats fed HFD were fasted overnight, and measured fasting blood glucose (FBG), then intraperitoneally injected with STZ (35 mg/kg, inject once). One week later, the FBG was measured again, and only those rats whose FBG were over 16.7 mmol/L were considered to be T2DM rats.
Dose of 1 mg/kg for DAPA used in the study was recommended based on the package insert of DAPA and dose conversion per unit weight from humans to rats (6.3 times). ARE was administered to the rats with the dose of 300 mg/kg, which was selected by converting the recommended doses of AR for adults in practice to the doses of ARE for the rats, according to the Pharmacopoeia of the People’s Republic of China. The healthy rats and T2DM rats were randomly assigned to two groups (n = 6 each group). The CD group was the healthy rats intragastrically administered with DAPA in a single dose (1 mg/kg). The CDA group was the healthy rats intragastrically administered with ARE (300 mg/kg) once a day for seven consecutive days, and intragastrically administered with DAPA (1 mg/kg) at the same time on the seventh day. The MD group was the T2DM rats intragastrically administered with DAPA in a single dose (1 mg/kg).

[2] = MD group: T2DM rats, DAPA alone, single intragastric dose 1.05 mg/kg, n = 6, mean ± SD
[3] = MDA group compared to MD group (T2DM rats, with ARE versus DAPA alone)
[4] = MDA group: T2DM rats, ARE 300 mg/kg intragastric once a day for 7 days + DAPA single dose 1.05 mg/kg on day 7, n = 6, mean ± SD
[5] = MDA-H group: T2DM rats, ARE 900 mg/kg once a day for 7 days + DAPA single dose 1.05 mg/kg on day 7, n=6, mean ± SD
[6] = MDA-L group: T2DM rats, ARE 300 mg/kg once a day for 7 days + DAPA single dose 1.05 mg/kg on day 7, n=6, mean ± SD
[7] = T2DM rats compared to healthy rats, DAPA alone

**Q.** Which “increase of C max” value ([1]; T2DM patients with mild renal function damage versus T2DM patient without) does the source give for `CCOc1ccc(Cc2cc([C@@H]3O[C@H](CO)[C@@H](O)[C@H](O)[C@H]3O)ccc2Cl)cc1` [DAPA, Dapagliflozin] here?
**A.** Its value is 4%.

**Q.** And the “increase of C max” value ([1]; T2DM patients with moderate renal function damage versus T2DM patient without)?
**A.** Its value is 6%.

**Q.** What about the “increase of C max” value ([1]; T2DM patients with severe renal function damage versus T2DM patient without) of the same molecule?
**A.** The value was 9%.

**Q.** What about the P-gp substrate (P-gp) of the same molecule?
**A.** The P-gp substrate was “substrate of P-gp”.

**Q.** And the “AUC(0-inf)” value (in vivo; [2])?
**A.** The value was 4505.74±148.96 h*(ng/mL).

**Q.** And the “AUC(0-t)” value (in vivo; [2])?
**A.** The value was 4324.28±185.47 h*(ng/mL).

**Q.** What about the CL (in vivo; [2]) of the same molecule?
**A.** The CL was 233.25±7.80 (mL/h)/kg.

**Q.** And the V (in vivo; [2])?
**A.** Its V is 1.49898 ± 0.30743 L/kg.

**Q.** What about the “decrease of C max” value (in vivo; [3]) of the same molecule?
**A.** The value was 31.99%.

**Q.** What about the “decrease of t max” value (in vivo; [3]) of the same molecule?
**A.** The value was 62.50%.

**Q.** What about the “increase of V” value (in vivo; [3]) of the same molecule?
**A.** The value was 2.06 fold.

**Q.** And the “increase of t 1/2” value (in vivo; [3])?
**A.** Its value is 2.18 fold.

**Q.** What about the “AUC(0-inf)” value (in vivo; [4]) of the same molecule?
**A.** The value was 4865.13±1307.11 h*(ng/mL).

**Q.** What about the “AUC(0-t)” value (in vivo; [4]) of the same molecule?
**A.** The value was 4051.27±952.61 h*(ng/mL).

**Q.** And the CL (in vivo; [4])?
**A.** Its CL is 228.25±56.10 (mL/h)/kg.

**Q.** What about the V (in vivo; [4]) of the same molecule?
**A.** The V was 3.09173 ± 1.18358 L/kg.

**Q.** And the “AUC(0-inf)” value (in vivo; [5])?
**A.** The value was 4464.67±408.26 h*(ng/mL).

**Q.** What about the “AUC(0-t)” value (in vivo; [5]) of the same molecule?
**A.** The value was 4070.47±408.83 h*(ng/mL).

**Q.** What about the CL (in vivo; [5]) of the same molecule?
**A.** Its CL is 237.88±21.93 (mL/h)/kg.

**Q.** What about the V (in vivo; [5]) of the same molecule?
**A.** Its V is 2.55248 ± 0.48245 L/kg.

**Q.** What about the “AUC(0-inf)” value (in vivo; [6]) of the same molecule?
**A.** Its value is 4560.99±768.53 h*(ng/mL).

**Q.** And the “AUC(0-t)” value (in vivo; [6])?
**A.** Its value is 3991.37±640.65 h*(ng/mL).

**Q.** What about the CL (in vivo; [6]) of the same molecule?
**A.** Its CL is 235.15±35.35 (mL/h)/kg.

**Q.** What about the V (in vivo; [6]) of the same molecule?
**A.** Its V is 2.91586 ± 0.51024 L/kg.

**Q.** What about the “decrease of t max” value (in vivo; [7]) of the same molecule?
**A.** Its value is 29.45%.

**Q.** What about the “increase of C max” value (in vivo; [7]) of the same molecule?
**A.** The value was 62.94%.

**Q.** And the “difference of AUC(0-t), AUC(0-inf), CL, MRT” value (in vivo; between the MD group and the MDA group (T2DM rats))?
**A.** Its value is “no significant difference”.

**Q.** And the “changes for t 1/2, V, AUC, CL and MRT” value (in vivo; healthy rats versus T2DM rats, DAPA alone)?
**A.** Its value is “no significant changes”.

**Q.** What about the Cmax (in vivo; 1.05 mg/kg, C max, MD group: T2DM rats, DAPA alone, single intragastric dose 1.05 mg/kg, n = 6, mean ± SD) of the same molecule?
**A.** Its Cmax is 627 ± 68.6 ng/mL.

**Q.** And the Cmax (in vivo; 1.05 mg/kg, Cmax, MDA-H group: T2DM rats, ARE 900 mg/kg once a day for 7 days + DAPA single dose 1.05 mg/kg on day 7, n=6, mean ± SD)?
**A.** Its Cmax is 457 ± 50.4 ng/mL.

**Q.** What about the Cmax (in vivo; 1.05 mg/kg, Cmax, MDA-L group: T2DM rats, ARE 300 mg/kg once a day for 7 days + DAPA single dose 1.05 mg/kg on day 7, n=6, mean ± SD) of the same molecule?
**A.** Its Cmax is 433 ± 62.6 ng/mL.

**Q.** And the MRT last (in vivo; 1.05 mg/kg, MD group: T2DM rats, DAPA alone, single intragastric dose 1.05 mg/kg, n = 6, mean ± SD)?
**A.** The MRT last was 7.57 ± 0.32 h.

**Q.** And the MRT last (in vivo; 1.05 mg/kg, MDA-H group: T2DM rats, ARE 900 mg/kg once a day for 7 days + DAPA single dose 1.05 mg/kg on day 7, n=6, mean ± SD)?
**A.** Its MRT last is 7.23 ± 0.37 h.

**Q.** And the MRT last (in vivo; 1.05 mg/kg, MDA-L group: T2DM rats, ARE 300 mg/kg once a day for 7 days + DAPA single dose 1.05 mg/kg on day 7, n=6, mean ± SD)?
**A.** Its MRT last is 7.39 ± 0.34 h.

**Q.** And the half-life (in vivo; 1.05 mg/kg, t 1/2, MD group: T2DM rats, DAPA alone, single intragastric dose 1.05 mg/kg, n = 6, mean ± SD)?
**A.** The half-life was 4.45 ± 0.9 h.

**Q.** What about the half-life (in vivo; 1.05 mg/kg, t1/2, MDA-H group: T2DM rats, ARE 900 mg/kg once a day for 7 days + DAPA single dose 1.05 mg/kg on day 7, n=6, mean ± SD) of the same molecule?
**A.** The half-life was 7.44 ± 0.86 h.

**Q.** And the half-life (in vivo; 1.05 mg/kg, t1/2, MDA-L group: T2DM rats, ARE 300 mg/kg once a day for 7 days + DAPA single dose 1.05 mg/kg on day 7, n=6, mean ± SD)?
**A.** The half-life was 8.64 ± 1.08 h.

**Q.** And the Tmax (in vivo; 1.05 mg/kg, t max, MD group: T2DM rats, DAPA alone, single intragastric dose 1.05 mg/kg, n = 6, mean ± SD)?
**A.** Its Tmax is 4 h.

**Q.** What about the Tmax (in vivo; 1.05 mg/kg, tmax, MDA-H group: T2DM rats, ARE 900 mg/kg once a day for 7 days + DAPA single dose 1.05 mg/kg on day 7, n=6, mean ± SD) of the same molecule?
**A.** Its Tmax is 1.45 ± 0.61 h.

**Q.** And the Tmax (in vivo; 1.05 mg/kg, tmax, MDA-L group: T2DM rats, ARE 300 mg/kg once a day for 7 days + DAPA single dose 1.05 mg/kg on day 7, n=6, mean ± SD)?
**A.** Its Tmax is 1.25 ± 0.82 h.

**Q.** What about the Cmax (in vivo; C max, MDA group: T2DM rats, ARE 300 mg/kg intragastric once a day for 7 days + DAPA single dose 1.05 mg/kg on day 7, n = 6, mean ± SD) of the same molecule?
**A.** Its Cmax is 427 ± 58.9 ng/mL.

**Q.** And the MRT last (in vivo; [4])?
**A.** The MRT last was 7.64 ± 0.7 h.

**Q.** And the half-life (in vivo; t 1/2, MDA group: T2DM rats, ARE 300 mg/kg intragastric once a day for 7 days + DAPA single dose 1.05 mg/kg on day 7, n = 6, mean ± SD)?
**A.** The half-life was 9.69 ± 3.47 h.

**Q.** What about the Tmax (in vivo; t max, MDA group: T2DM rats, ARE 300 mg/kg intragastric once a day for 7 days + DAPA single dose 1.05 mg/kg on day 7, n = 6, mean ± SD) of the same molecule?
**A.** The Tmax was 1.5 ± 0.77 h.
